Results on one molecule are retold here after US20220096431A1, “PHARMACEUTICAL COMPOSITION AND METHOD FOR PREVENTING, TREATING AND DIAGNOSING A NEURODEGENERATIVE DISEASE” (BUDDHIST TZU CHI MEDICAL FOUNDATION, priority 2020, published 2022).

The subject of data set [1] is 3xTg transgenic mice. Briefly: Amyloid accumulation in the brain of 3xTg transgenic mice, single and combined treatment (FIG. 11). The settings on record: 3xTg mice; 60 mg/kg n-butylidenephthalide, 200 mg/kg vitamin C, alone or combined; vs olive oil control. Type of data set: in vivo.
For data set [2], the system named is PSEN-1, PSEN-2, Aβ1-42 and NICD in C6-C99 cells. Briefly: Western blotting of amyloid-related proteins in C6-C99 cells. The settings on record: C6-C99 cells. The class given is cell-based. An excerpt: FIG. 3B to FIG. 3E are the quantitative results of the Western blotting analysis of PSEN-1, PSEN-2, β-amyloid 1-42 (Aβ1-42) and NICD in FIG. 3A, respectively (p*<0.05, p**<0.01). The C6-C99 cells used in FIGS. 3A to 3E are glioma cells having a fragment of human amyloid precursor protein (APP). This fragment is a peptide fragment with 99 amino acids (APP-C99), which can express large amounts of PSEN-1, PSEN-2, and Aβ 1-42 after activation by cumate.
Western blotting is used to detect the expression levels of amyloid-related proteins, including PSEN-1, PSEN-2, and β-amyloid 1-42 (Aβ1-42), while simultaneously detect the expression level of Notch protein (Notch intracellular domain, NICD), which is an indicator of drug safety. If the Notch protein is not affected, then drug safety is indicated.
APP-C99 was transfected into C6 cells with the C99 peptide through cumate-inducible system activation.

For data set [3], the system named is SH-SY5Y. Briefly: MTT cell viability of SH-SY5Y cells. The conditions noted are these: n-Bp 100 μM, vitamin C 200 μM.
From the text: Then, the cell viability is detected by a cell survival test using (3-(4,5-dimethylthiazol-2-yl)-2,5-diphenyltetrazolium bromide (MTT) assay.
The subject of data set [4] is 3xTg AD mice. Put plainly: Morris water maze test in AD-3xTg mice. Type of data set: in vivo. The method, then:
Red dot, starting point of the swim; green dot, end point of the swim.
(§1) N=4 for wild-type and 10 mg/kg donepezil-treated 3xTg mice. N=6 for vehicle-treated 3xTg mice, 60 mg/kg n-BP-treated 3xTg mice, and 120 mg/kg n-BP-treated 3xTg mice. *p-value<0.05, **p-value<0.01 (Student's t-test). […] After 4-12 months, the B6 (C57/BL6) control mice have no AP accumulation (Green color).
The mice behavioral experiment using Morris water maze is a classical test to detect short-term memory and complex memory. Through its behavior, it can be determined whether there is a difference in memory after drug treatment. […] Two sessions were conducted on Day 1 as follows: (1) mice were placed in the swimming pool to adapt to the environment for a training duration of 120 seconds; (2) a hidden rest platform was added to the pool at a precise location in the northwest corner of the pool (blue diamond in the east; red circle in the west and yellow triangle in the south as shown in FIG. 7G) and the mice were allowed for to swim in the pool for a duration of another 120 seconds. If the rescue platform was not found by the mouse within the allocated time, the mouse was guided to the platform. The test for finding the rescue platform is carried out for the next four consecutive days, with each session lasting 90 seconds. The result is collected and analyzed.

Data set [5] deals with 3xTg AD mice. Briefly: 18F-FBB PET/CT of amyloid accumulation in the brain of 3xTg mice. Type of data set: in vivo. The method, then:
as §1
FIGS. 8B and 8C show the comparison of VOI-based 18F-florbetaben SUVR(CTX/CB) and SUVR (HIP/CB) between B6 mice, vehicle-treated 3xTg transgenic, and n-BP-treated mice (60 mg/kg) aged 6 and 12 months. n=4 for B6 mice. n=5 for 3xTg mice. SUVR; standard uptake value ratio, M; months, cerebellum: CB.
The accumulation of amyloid in brain tissues can be detected by using an amyloid tracking agent, 18F-Florbetaben (FBB). 18F-FBB positron emission tomography-computed tomography (PET/CT) was used to explore the effect of n-BP treatment on AP accumulation in the hippocampus and cortex. The accumulation of amyloid will appear red in the picture. The quantity and location of AP accumulation in the brains of mice were determined using the tracking reagent 18F-FBB from birth to 4 to 12 months of age.

Data set [6] relates to neurons differentiated from trisomy 21-iPSC. Briefly: Aβ aggregation, phosphorylated Tau and miRNA in neurons differentiated from Ts21-iPSC. Type of data set: cell-based, human. The source says: The neurons differentiated from the induced pluripotent stem cells produce hyperphosphorylated Tau (AT8). Excessive expression of AT8 affects winding signals and nutrient transmission of neurons; Aβ 1-42 is the main component of amyloid accumulation; microtubule-associated protein (microtubule-associated protein 2, MAP2) is a marker of neurons which mainly maintains the stability of dendritic neurons; tubulin (neuron-specific class III β-tubulin, TuJ1) is also a marker of neurons.
By genetic engineering, the four transcription factors Oct-4, Sox-2, c-Myc, and Klf-4 were delivered into adult cells and reverse-transcribed the cells into induced pluripotent stem cells (iPSC) carrying trisomy 21(Ts21) gene mutation.

The subject of data set [7] is miR-29b-2-5p and PSEN1 in the hippocampus of 3xTg AD mice. Put plainly: RT-qPCR of miR-29b-2-5p and PSEN1 in the hippocampus of 3xTg AD mice. Type of data set: in vivo. An excerpt: FIGS. 7E and 7F show the RT-qPCR analysis result of the expression levels of miR-29b-2-5p and PSEN1, respectively, in the hippocampus of 3xTg AD mice. n=—4.
AD-3xTg transgenic mice are an animal model used to study Alzheimer's disease. The transgenic mice are genetically engineered to carry point mutations of human amyloid precursor protein (APP), microtubule-associated protein tau (MAPT P301L) and type I presenilin protein (PSEN-1). The AD-3xTg transgenic mice carrying Alzheimer's mutation genes affect the brain and produce symptoms, mainly involving amyloid aggregation in the hippocampus and cerebral cortex. […] The 3xTg mice have β-amyloid accumulation in the brain and have problems related to cognition.
(In general: Real-time PCR tracks product formation cycle by cycle.)

Where [8] appears, read: hippocampal gyrus of AD-3xTg mice, 120 mg/kg orally, vs untreated.
[9] abbreviates: hippocampus of 3xTg AD mice, control 100%.

“Also recorded” adds a separate entry of the source.

In the case of `CCCC=C1OC(=O)c2ccccc21` [n-BP, n-butylidenephthalide], in data set [1], the “Therapeutic effect on accumulation of amyloid in the brain” value is reported as “significantly improved therapeutic effect”. In data set [2] (100 μM n-BP), the Aβ1-42 expression is on record as 40.53%±28.46% and the PSEN1 expression is on record as 37.33%±23.1%. Moreover, in data set [2] (100 μM, FIG. 3), the “Aβ1-42 expression” value is “significantly reduced”; the “Notch protein (NICD) expression, indicator of drug safety” value is recorded as “not affected”; the PSEN-1 expression entry was “significantly reduced”; the PSEN-2 expression result is listed as “significantly reduced”. Also, the “Cell survival (biosafety)” value in data set [3] was “Neither butylidenephthalide nor vitamin C has any effect on cell survival”. In addition, the Movement trajectory entry in data set [4] (120 mg n-BP/kg vs 60 mg n-BP/kg) is recorded as “shorter movement trajectory”. The “Locating and arriving at the resting platform” value in data set [4] (120 mg/kg n-BP, donepezil as positive control) is “able to quickly locate and arrive at the resting platform”. The “Finding the rest platform after training” value in data set [4] (60 and 120 mg n-BP/kg) was “could find the rest platform after training”. In data set [4] (Day 5, 120 mg/kg n-BP, 10 mg donepezil/kg, vs untreated 3xTg mice), the “Time required to find the platform” value is listed as “significantly lower”. Further, in data set [5] (120 mg n-BP/kg, age 12 months vs age 6 months), the “Standardized uptake value ratio (SUVR) of FBB in the hippocampus and cortex” value is recorded as “significantly lower”. Also, the “Aβ accumulation in hippocampus and cortex (18F-FBB PET/CT)” value in data set [5] (3xTg AD mice, oral n-BP 60 or 120 mg/kg) is on record as “less AP accumulation; also recorded: low levels of amyloid accumulation”. Also, in data set [6] (FIG. 5B), the Aβ aggregation result was “effectively reduces” and the “Phosphorylation of Tau protein” value is “effectively reduces”. The “Expression level of miRNA-29b-2-5p” value in data set [6] (FIG. 5C) was “increased significantly”. In data set [6] (FIG. 5D), the “Aggregation of Aβ 1-42 (protein levels)” value was “decreased” and the “Protein expression of phosphorylated Tau protein” value is on record as “decreased”. In data set [7] (setting [8]), the “Gene expression level of PSEN-1” value is on record as “decreased expression levels” and the “Gene expression level of miRNA-29b-2-5p” value is listed as “higher expression levels”. Further, in data set [7] (setting [9]), the PSEN1 expression is given as 26.26%±27.75% and the miR-29b-2-5p expression is 188.58%±55.09%.
